Measurements: article PMC7238052, “Novel and Modified Neutrophil Elastase Inhibitor Loaded in Topical Formulations for Psoriasis Management” (Pharmaceutics, 2020)
Like-named read-outs stand apart in the source and are kept apart here.

Tests used:
[1] = molecular target: T1, Human neutrophil elastase (HNE) (Homo sapiens, UniProt P08246); experiment: fluorometric protease assay, MeO-Suc-Ala-Ala-Pro-Val-AMC; assay type: biochemical
T1 construct: gene ELANE; isolated enzyme, single polypeptide chain
T1 sequence (P08246 30-247): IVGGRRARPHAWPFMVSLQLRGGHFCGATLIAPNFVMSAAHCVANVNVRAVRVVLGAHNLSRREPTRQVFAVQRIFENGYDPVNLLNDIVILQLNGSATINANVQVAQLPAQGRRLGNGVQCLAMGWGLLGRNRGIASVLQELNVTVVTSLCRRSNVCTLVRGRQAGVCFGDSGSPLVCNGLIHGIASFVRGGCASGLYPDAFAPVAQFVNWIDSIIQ
Excerpt: fluorometric protease assay, MeO-Suc-Ala-Ala-Pro-Val-AMC on Human neutrophil elastase (HNE)

[2] = test system: T2, trypsin; experiment: fluorometric protease assay, Z-Gly-Gly-Arg-AMC; assay type: biochemical, Homo sapiens; conditions: […] Tris-HCl, […] NaCl pH […] °C; read-out: IC50 ± SD (μM) / Trypsin
T2 construct: gene PRSS1; enzyme from human pancreas
Excerpt: fluorometric protease assay, Z-Gly-Gly-Arg-AMC on trypsin

[3] = test system: T3, chymotrypsin; experiment: fluorometric protease assay, Suc-Ala-Ala-Pro-Phe-AMC; assay type: biochemical, Homo sapiens; conditions: […] Tris-HCl, […] NaCl pH […] °C; read-out: IC50 ± SD (μM) / Chymotrypsin
T3 construct: gene CTRB1; enzyme from human pancreas
Excerpt: fluorometric protease assay, Suc-Ala-Ala-Pro-Phe-AMC on chymotrypsin

[4] = molecular target: T4, urokinase (Homo sapiens, UniProt P00749); experiment: fluorometric protease assay, Z-Gly-Gly-Arg-AMC; assay type: biochemical; conditions: read-out: IC50 ± SD (μM) / Urokinase
T4 construct: gene PLAU; isolated enzyme; source not clearly stated
Excerpt: fluorometric protease assay, Z-Gly-Gly-Arg-AMC on urokinase

[5] = test system: T5, kallikrein; experiment: fluorometric protease assay, H-Pro-Phe-Arg-AMC; assay type: biochemical, Homo sapiens; conditions: […] Tris-HCl, […] NaCl pH […] °C; read-out: IC50 ± SD (μM) / Kallikrein
T5 construct: gene KLKB1
Excerpt: fluorometric protease assay, H-Pro-Phe-Arg-AMC on kallikrein

| IC50 ([1]; read-out: IC50 ± SD) [nM] | IC50 [2] [µM] | IC50 [3] [µM] | IC50 [4] [µM] | IC50 ([1]; read-out: IC50 ± SD (nM) / HNE) [nM] | IC50 [5] [µM] | Compound |
| --- | --- | --- | --- | --- | --- | --- |
| 0.96 ± 0.13 |  |  |  |  |  | CCC1(CC)C(=O)N(c2ccc(C(=O)OCc3ccccc3)cc2)C1=O [compound 8] |
|  | > 1 |  | > 2 | 0.85 ± 0.1 | > 5 | CCC1(CC)C(=O)N(c2ccc(CSc3nc4cc(C(=O)NCCCNc5ccc([N+](=O)[O-])c6nonc56)ccc4o3)cc2)C1=O [compound 16, 2-((4-(3,3-diethyl-2,4-dioxoazetidin-1-yl)benzyl)thio)-N-(3-((7nitrobenzo[c][1,2,5]oxadiazol-4-yl)amino)propyl)benzo[d]oxazole-5-carboxamide] |
|  | > 1 | > 0.5 | > 2 | 0.64 ± 0.03 | > 3 | CCC1(CC)C(=O)N(c2ccc(C(=O)NCCCNc3ccc([N+](=O)[O-])c4nonc34)cc2)C1=O [compound 17] |

Continued, compound first:

| Compound | IC50 ([1]; read-out: IC50 ± SD) [nM] | IC50 [2] [µM] | IC50 [3] [µM] | IC50 [4] [µM] | IC50 ([1]; read-out: IC50 ± SD (nM) / HNE) [nM] | IC50 [5] [µM] |
| --- | --- | --- | --- | --- | --- | --- |
| CCC1(CC)C(=O)N(c2ccc(COc3ccc4ccc(=O)oc4c3)cc2)C1=O [compound 1, 3,3-diethyl-1-(4-(((2-oxo-2H-chromen-7-yl)oxy)methyl)phenyl)-azetidine-2,4-dione] | 0.42 ± 0.09 | > 1 | > 8 | > 50 |  |  |
| CCC1(CC)C(=O)N(c2ccc(CBr)cc2)C1=O [compound 6] | 0.64 ± 0.03 |  |  |  |  |  |
| CCC1(CC)C(=O)N(c2ccc(C(=O)O)cc2)C1=O [compound 9] | 14.7 ± 5.55 |  |  |  |  |  |
